Measured values as given in patent publication US8431529B2, “Bi-dentate compounds as kinase inhibitors” (Sanford-Burnham Medical Research Institute, priority 2007, dated 2013).
Non-standard residues stand in square brackets, D forms with d. Residues, ends and D or L forms follow the SMILES beside them. No end group written: not given here. *: point of attachment. X1 = O=C(NCCCN*)c1ccc(-c2n[nH]c3ccccc23)cc1

What was measured:
JNK1 [1] = molecular target: T1, JNK1 (Homo sapiens, UniProt P45983); test: DELFIA assay: displacement of biotinylated pepJIP1 (L-JIP1 peptide) from GST-JNK1; type: binding; conditions: for Delfia Assay (Displacement of L-JIP1 peptide from JNK), ND class: Table 1, ND with footnote
T1 sequence (P45983 whole entry, species assumed, the tested form may be a part): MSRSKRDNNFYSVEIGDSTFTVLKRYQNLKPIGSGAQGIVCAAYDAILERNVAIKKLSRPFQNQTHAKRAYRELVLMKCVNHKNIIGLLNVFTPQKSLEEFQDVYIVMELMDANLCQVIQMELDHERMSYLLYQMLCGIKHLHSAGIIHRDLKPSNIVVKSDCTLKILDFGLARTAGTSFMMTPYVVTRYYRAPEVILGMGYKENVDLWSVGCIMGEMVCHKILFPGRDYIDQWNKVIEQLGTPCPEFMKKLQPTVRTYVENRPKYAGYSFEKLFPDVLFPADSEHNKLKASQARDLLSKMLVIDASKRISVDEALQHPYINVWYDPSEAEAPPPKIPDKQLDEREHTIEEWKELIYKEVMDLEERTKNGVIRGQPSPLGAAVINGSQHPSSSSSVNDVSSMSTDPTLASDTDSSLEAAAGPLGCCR
Protocol: In order to define an optimal interacting docking peptide sequence for JNK, twenty peptide sequences were tested, which were derived from its putative substrates and scaffolding proteins, all presenting a D-domain consensus motif. Each peptide was tested for its ability to displace pepJIP1 (residues 153-164) from JNK1 by using a Dissociation Enhanced Lanthanide Fluoro-Immuno Assay (DELFIA) platform. DELFIA is a heterogeneous assay whereby a biotin-linked pepJIP1 is adsorbed onto a streptavidin-coated plate followed by incubation with GST-JNK1. Detection of the pepJIP1/GST-JNK1 complex is facilitated by a highly fluorescent anti-GST Eu-antibody conjugate (Perkin-Elmer).
DELFIA Assay (dissociation enhanced lanthanide fluoro-immuno assay). […] After 1 hr incubation and elimination of unbound biotin-pepJIP1 by 3 washing steps, 87 μL of Eu-labeled anti-GST antibody solution (300 ng/ml; 1.9 nM), 2.5 μL DMSO solution containing test compound, and 10 μL solution of GST-JNK1 for a final protein concentration of 10 nM was added. After 1 hr incubation at 0° C., each well was washed 5 times to eliminate unbound protein and the Eu-antibody if displaced by a test compound. Subsequently, 200 μL of enhancement solution (Perkin-Elmer) was added to each well and fluorescence measured after 10 min incubation (excitation wavelength, 340 nm; emission wavelength, 615 nm). Controls include unlabeled peptide and blanks receiving no compounds. Protein and peptide solutions were prepared in DELFIA buffer (Perkin-Elmer).

JNK1 [2] = molecular target: T1, JNK1; test: LanthaScreen TR-FRET in vitro kinase activity assay, JNK1 phosphorylation of ATF2; type: biochemical; conditions: for Kinase Activity Assay (JNK), ND class: Table 1, ND with footnote
Protocol: LanthaScreen™ In vitro Kinase Assay. LanthaScreen™ assay platform from Invitrogen was utilized. The time-resolved fluorescence resonance energy transfer assay (TR-FRET) was performed in 384 well plates. Each well received JNK1 (100 ng/mL), ATF2 (200 nM), and ATP (1 μM) in 50 mM HEPES, 10 mM MgCl2, 1 mM EGTA and 0.01% Brij-35, pH 7.5 and test compounds. The kinase reaction was performed at room temperature for 1 hr. After this time, the terbium labeled antibody and EDTA were added into each well. After an additional hour incubation, the signal was measured at 520/495 nm emission ratio on a BMG Pherastar fluorescence plate reader.

p38α = p38α (Homo sapiens, UniProt Q16539); test: LanthaScreen kinase activity assay with ATF2 substrate versus p38α; type: biochemical
p38α, sequence (Q16539 whole entry, the tested form may be a part): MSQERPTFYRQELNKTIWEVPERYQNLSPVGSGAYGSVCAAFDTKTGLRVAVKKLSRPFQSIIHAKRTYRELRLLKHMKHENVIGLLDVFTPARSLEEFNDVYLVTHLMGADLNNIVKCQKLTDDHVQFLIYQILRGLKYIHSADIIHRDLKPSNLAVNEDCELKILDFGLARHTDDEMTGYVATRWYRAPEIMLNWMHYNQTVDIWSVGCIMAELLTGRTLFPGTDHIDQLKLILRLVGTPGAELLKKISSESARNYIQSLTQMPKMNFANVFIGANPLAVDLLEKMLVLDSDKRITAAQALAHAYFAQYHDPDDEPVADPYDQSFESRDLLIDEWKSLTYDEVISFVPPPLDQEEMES
Protocol: In order to confer further favorable pharmacological properties to this compound for in vivo studies, analogous to the clinical candidate D-JNK1^15, an all-D retro-inverso version of BI77B8 fused to the cell penetrating HIV-TAT sequence was prepared. […] LanthaScreen™ In vitro Kinase Assay. LanthaScreen™ assay platform from Invitrogen was utilized. The time-resolved fluorescence resonance energy transfer assay (TR-FRET) was performed in 384 well plates. […] After this time, the terbium labeled antibody and EDTA were added into each well. After an additional hour incubation, the signal was measured at 520/495 nm emission ratio on a BMG Pherastar fluorescence plate reader.

[3] = Table 1, read-out: Kinase Activity Assay (JNK) IC50
[4] = Table 2, read-out: IC50 (μM), Kinase Assay
[5] = Table 3, read-out: pepJIP Displacement IC50
[6] = JNK1, ATF2 substrate, read-out: Kinase Inhibition IC50
[7] = Table 1, read-out: Delfia Assay (Displacement of L-JIP1 peptide from JNK) IC50

## NCCCNC(=O)c1ccc(-c2n[nH]c3ccccc23)cc1
JNK1 [1]
  Delfia Assay (Displacement of L-JIP1 peptide from JNK), ND class: ND^*) (In the Delfia Assay, no displacement up to 100 μM)

## CC(C)(C)OC(=O)NCCCNC(=O)c1ccc(-c2n[nH]c3ccccc23)cc1
JNK1 [1]
  Delfia Assay (Displacement of L-JIP1 peptide from JNK), ND class: ND^*) (In the Delfia Assay, no displacement up to 100 μM)
JNK1 [2]; [3]
  IC50: 3.5 µM

## COC(=O)c1ccc(-c2n[nH]c3ccccc23)cc1
JNK1 [2]; [4]
  IC50: 9.7 µM

## NCCCNC(=O)c1ccc(-c2n[nH]c3ccc(NC(=O)Cc4cccs4)cc23)cc1
JNK1 [2]; [4]
  IC50: 1.9 µM

## COC(=O)CCCNC(=O)c1ccc(-c2n[nH]c3ccccc23)cc1
JNK1 [2]; [4]
  IC50: 0.9 µM

## CC(C)(C)OC(=O)NCCCNC(=O)c1ccc(-c2n[nH]c3ccc(NC(=O)Cc4cccs4)cc23)cc1
JNK1 [2]; [4]
  IC50: 1.2 µM

## CC(C)(C)OC(=O)NCCCCCNC(=O)c1ccc(-c2n[nH]c3ccccc23)cc1
JNK1 [2]; [4]
  IC50: 2.3 µM

## CN1CCN(CCC(=O)NCCCCCNC(=O)c2ccc(-c3n[nH]c4ccccc34)cc2)CC1
JNK1 [2]; [4]
  IC50: 4.5 µM

## CC(C)CC(NC(=O)C(CC(N)=O)NC(=O)C(CC(C)C)NC(=O)C(NC(=O)C(NC(=O)C1CCCN1C(=O)C(N)CCCNC(=N)N)C(C)O)C(C)O)C(=O)NCC(=O)NCC(=O)NCCCNC(=O)c1ccc(-c2n[nH]c3ccccc23)cc1 (centres unmarked) [BI-77B8] (H-RPTTLNLGG-X1; configuration not given here)
JNK1 [1]
  Affinity in competition with pepJIP1 for JNK1 binding: sub-nanomolar
JNK1 [1]; [5]
  IC50: 900 nM
JNK1 [2]
  Affinity in inhibition of JNK1 kinase activity: sub-nanomolar
JNK1 [2]; [6]
  IC50: 0.7 µM
JNK1 [2]; direct comparison with pepJIP1
  Improvement of kinase inhibition compared with pepJIP1: over 100 fold

## Ac-LNL-OH
JNK1 [1]
  Delfia Assay (Displacement of L-JIP1 peptide from JNK), ND class: ND^*) (In the Delfia Assay, no displacement up to 100 μM)
JNK1 [2]
  Kinase Activity Assay (JNK), ND class: ND^*) (in the Kinase Assay, no activity at 25 μM)

## Ac-LNLGG-OH
JNK1 [1]
  Delfia Assay (Displacement of L-JIP1 peptide from JNK), ND class: ND^*) (In the Delfia Assay, no displacement up to 100 μM)
JNK1 [2]
  Kinase Activity Assay (JNK), ND class: ND^*) (in the Kinase Assay, no activity at 25 μM)

## Ac-PTTLNLGG-OH
JNK1 [1]
  Delfia Assay (Displacement of L-JIP1 peptide from JNK), ND class: ND^*) (In the Delfia Assay, no displacement up to 100 μM)
JNK1 [2]
  Kinase Activity Assay (JNK), ND class: ND^*) (in the Kinase Assay, no activity at 25 μM)

## Ac-RPTTLNL-OH [BI-77F10, Ac-RPTTLNL-OH]
JNK1 [1]; [5]
  IC50: 4500 nM
JNK1 [2]; [6]
  IC50: > 50 µM
JNK1 [2]; at concentrations up to 25 μM
  Inhibition of JNK1 phosphorylation of ATF2: unable to inhibit

## Ac-RPTTLNLGG-OH
JNK1 [1]; [7]
  IC50: 18000 nM
JNK1 [2]; at 50 μM, read-out: Kinase Activity Assay (JNK) % inhibition
  inhibition at 50 µM: 25%

## Ac-tdqsrpvqpflnlttprrprpprrrqrrkkrg-OH [D-JNKI]
JNK1 [1]; [5]
  IC50: ~10000 nM
JNK1 [2]; [6]
  IC50: > 50 µM

## AcGRKKRRQRRRGGRPTTLNLGG (Ac-GRKKRRQRRRGGRPTTLNLGG)
p38α
  Kinase Activity Assay (p38[…]) % at 50 μM: 6% at 50 μm
JNK1 [2]; at 50 μM
  Kinase Activity Assay (JNK) % inhibition: 90%

## Compound I (RPTTLNLGG; also: conjugate per reaction scheme A)
p38α; FIGS. 3A, 3B
  Selectivity relative to p38a: good selectivity
JNK1 [1]; FIGS. 1A-1D, Delfia Assay
  Inhibitor activity compared with peptide Ac-RPTTLNLGG-OH and product 8: substantially more active
JNK1 [2]; FIGS. 2A, 2B
  ATP competition analysis: competitive, at least to some extent
JNK1 [2]; FIGS. 2C, 2D
  ATF2 competition analysis: competitive, at least to some extent

## GGLNLTTPRGGRRRQRRKKRG-NH2 (GG[dL][dN][dL][dT][dT][dP][dR]GG[dR][dR][dR][dQ][dR][dR][dK][dK][dR]G-NH2)
p38α
  Kinase Activity Assay (p38[…]) % at 50 μM: 0% at 50 μm
JNK1 [2]; at 50 μM
  Kinase Activity Assay (JNK) % inhibition: 11%

## RPKRPTTLNLF
p38α
  Kinase Activity Assay (p38[…]) % at 50 μM: 6% at 50 μM
JNK1 [1]; [7]
  IC50: 2900 nM
JNK1 [2]; [3]
  IC50: 0.423 µM
